Test results reported in BindingDB's records for doi:10.1021/jm010087e (The University of Western Australia, 2001).

assay: Inhibitory activity against clostridium histolyticum collagenase

Compound	Ki [nM]
Cc1cc(C)c(S(=O)(=O)N(Cc2ccccc2[N+](=O)[O-])C(C)C(=O)O)c(C)c1 (configuration not stated) [2-[(2-Nitro-benzyl)-(2,4,6-trimethyl-benzenesulfonyl)-amino]-propionic acid]	6000
CC(C(=O)NO)N(Cc1ccccc1[N+](=O)[O-])S(=O)(=O)c1ccc(NC(=O)OC(C)(C)C)cc1 (configuration not stated) [{4-[(1-Hydroxycarbamoyl-ethyl)-(2-nitro-benzyl)-sulfamoyl]-phenyl}-carbamic acid tert-butyl ester]	9
CC(C(=O)NO)N(Cc1ccccc1[N+](=O)[O-])C(=O)NS(=O)(=O)c1ccc(F)cc1 (configuration not stated) [2-[({[(4-fluorophenyl)sulfonyl]amino}carbonyl)(2-nitrobenzyl)amino]-N-hydroxypropanamide]	8
CC(C(=O)O)N(Cc1ccccc1[N+](=O)[O-])S(=O)(=O)C(F)(F)F (configuration not stated) [2-[(2-Nitro-benzyl)-trifluoromethanesulfonyl-amino]-propionic acid]	5100
CC(C(=O)NO)N(Cc1ccccc1[N+](=O)[O-])S(=O)(=O)c1ccc(F)cc1 (configuration not stated) [2-[(4-Fluoro-benzenesulfonyl)-(2-nitro-benzyl)-amino]-N-hydroxy-propionamide]	30
CC(C(=O)O)N(Cc1ccccc1[N+](=O)[O-])S(=O)(=O)c1cccc([N+](=O)[O-])c1 (configuration not stated) [2-[(3-Nitro-benzenesulfonyl)-(2-nitro-benzyl)-amino]-propionic acid]	5200
CC(C(=O)O)N(Cc1ccccc1[N+](=O)[O-])S(=O)(=O)c1ccc2ccccc2c1 (configuration not stated) [2-[(Naphthalene-2-sulfonyl)-(2-nitro-benzyl)-amino]-propionic acid]	1800
CC(C(=O)O)N(Cc1ccccc1[N+](=O)[O-])S(=O)(=O)N(C)C (configuration not stated) [2-[[(dimethylamino)sulfonyl](2-nitrobenzyl)amino]propanoic acid]	43000
CC(C(=O)NO)N(Cc1ccccc1[N+](=O)[O-])S(=O)(=O)c1cccc(C(=O)O)c1 (configuration not stated) [3-[(1-Hydroxycarbamoyl-ethyl)-(2-nitro-benzyl)-sulfamoyl]-benzoic acid]	8
CC(C(=O)O)N(Cc1ccccc1[N+](=O)[O-])C(=O)Nc1ccc(Cl)cc1 (configuration not stated) [2-[3-(4-Chloro-phenyl)-1-(2-nitro-benzyl)-ureido]-propionic acid]	6800
CC(C(=O)O)N(Cc1ccccc1[N+](=O)[O-])S(=O)(=O)C(Cl)(Cl)Cl (configuration not stated) [2-[(2-Nitro-benzyl)-trichloromethanesulfonyl-amino]-propionic acid]	5000
COc1ccc(S(=O)(=O)N(Cc2ccccc2[N+](=O)[O-])C(C)C(=O)O)cc1NC(=O)OC(C)(C)C (configuration not stated) [2-[(3-tert-Butoxycarbonylamino-4-methoxy-benzenesulfonyl)-(2-nitro-benzyl)-amino]-propionic acid]	2500
CC(C(=O)O)N(Cc1ccccc1[N+](=O)[O-])C(=O)Nc1ccc(Cl)c(Cl)c1 (configuration not stated) [2-[3-(3,4-Dichloro-phenyl)-1-(2-nitro-benzyl)-ureido]-propionic acid]	5300
CC(C(=O)NO)N(Cc1ccccc1[N+](=O)[O-])S(=O)(=O)C(F)(F)F (configuration not stated) [N-Hydroxy-2-[(2-nitro-benzyl)-trifluoromethanesulfonyl-amino]-propionamide]	70
CC(=O)c1ccc(S(=O)(=O)N(Cc2ccccc2[N+](=O)[O-])C(C)C(=O)NO)cc1 (configuration not stated) [2-[(4-Acetyl-benzenesulfonyl)-(2-nitro-benzyl)-amino]-N-hydroxy-propionamide]	10
Cc1ccc(S(=O)(=O)NC(=O)N(Cc2ccccc2[N+](=O)[O-])C(C)C(=O)O)cc1 (configuration not stated) [2-[({[(4-methylphenyl)sulfonyl]amino}carbonyl)(2-nitrobenzyl)amino]propanoic acid]	3100

Compound	Ki [nM]
CC(C(=O)O)N(Cc1ccccc1[N+](=O)[O-])S(=O)(=O)c1cc(Cl)ccc1Cl (configuration not stated) [2-[(2,5-Dichloro-benzenesulfonyl)-(2-nitro-benzyl)-amino]-propionic acid]	3400
CC(C(=O)O)N(Cc1ccccc1[N+](=O)[O-])C(=O)NS(=O)(=O)c1ccc(F)cc1 (configuration not stated) [2-[({[(4-fluorophenyl)sulfonyl]amino}carbonyl)(2-nitrobenzyl)amino]propanoic acid]	3000
CC(C(=O)NO)N(Cc1ccccc1[N+](=O)[O-])S(=O)(=O)Cc1ccccc1 (configuration not stated) [N-Hydroxy-2-[(2-nitro-benzyl)-phenylmethanesulfonyl-amino]-propionamide]	55
CC(C(=O)NO)N(Cc1ccccc1[N+](=O)[O-])S(=O)(=O)c1cc(Cl)cc(Cl)c1O (configuration not stated) [2-[(3,5-Dichloro-2-hydroxy-benzenesulfonyl)-(2-nitro-benzyl)-amino]-N-hydroxy-propionamide]	10
CC(C(=O)O)N(Cc1ccccc1[N+](=O)[O-])C(=O)NS(=O)(=O)c1ccc(Cl)cc1 (configuration not stated) [2-[({[(4-chlorophenyl)sulfonyl]amino}carbonyl)(2-nitrobenzyl)amino]propanoic acid]	2700
CC(C(=O)NO)N(Cc1ccccc1[N+](=O)[O-])S(C)(=O)=O (configuration not stated) [N-Hydroxy-2-[methanesulfonyl-(2-nitro-benzyl)-amino]-propionamide]	86
CC(C(=O)NO)N(Cc1ccccc1[N+](=O)[O-])S(=O)(=O)N(C)C (configuration not stated) [2-[[(dimethylamino)sulfonyl](2-nitrobenzyl)amino]-N-hydroxypropanamide]	79
CC(C(=O)NO)N(Cc1ccccc1[N+](=O)[O-])S(=O)(=O)c1ccc2ccccc2c1 (configuration not stated) [N-Hydroxy-2-[(naphthalene-2-sulfonyl)-(2-nitro-benzyl)-amino]-propionamide]	8
CC(C(=O)NO)N(Cc1ccccc1[N+](=O)[O-])C(=S)NC(=O)c1ccccc1 (configuration not stated) [2-[3-Benzoyl-1-(2-nitro-benzyl)-thioureido]-N-hydroxy-propionamide]	8
CC(C(=O)NO)N(Cc1ccccc1[N+](=O)[O-])C(=O)Nc1ccc(Cl)cc1 (configuration not stated) [2-[3-(4-Chloro-phenyl)-1-(2-nitro-benzyl)-ureido]-N-hydroxy-propionamide]	19
CC(=O)Nc1ccc(S(=O)(=O)N(Cc2ccccc2[N+](=O)[O-])C(C)C(=O)O)cc1 (configuration not stated) [2-[(4-Acetylamino-benzenesulfonyl)-(2-nitro-benzyl)-amino]-propionic acid]	3300
CC(C(=O)O)N(Cc1ccccc1[N+](=O)[O-])S(=O)(=O)c1ccccc1 (configuration not stated) [2-[Benzenesulfonyl-(2-nitro-benzyl)-amino]-propionic acid]	27000
CC(C(=O)O)N(Cc1ccccc1[N+](=O)[O-])S(=O)(=O)c1ccc(F)cc1 (configuration not stated) [2-[(4-Fluoro-benzenesulfonyl)-(2-nitro-benzyl)-amino]-propionic acid]	12000
CC(C(=O)O)N(Cc1ccccc1[N+](=O)[O-])C(=O)Nc1ccc(F)cc1 (configuration not stated) [2-[3-(4-Fluoro-phenyl)-1-(2-nitro-benzyl)-ureido]-propionic acid]	6200
CC(C(=O)NO)N(Cc1ccccc1[N+](=O)[O-])S(=O)(=O)C(F)(F)C(F)(F)C(F)(F)C(F)(F)F (configuration not stated) [N-Hydroxy-2-[(2-nitro-benzyl)-(nonafluorobutane-1-sulfonyl)-amino]-propionamide]	10
CC(C(=O)O)N(Cc1ccccc1[N+](=O)[O-])S(=O)(=O)c1cccc(C(F)(F)F)c1 (configuration not stated) [2-[(2-Nitro-benzyl)-(3-trifluoromethyl-benzenesulfonyl)-amino]-propionic acid]	400
